Test results published in paper PMC2134300 (The Journal of Cell Biology, 1997).
Residues, ends and D or L forms follow the SMILES beside them. *: point of attachment. Cbz = O=C(OCc1ccccc1)*; CH2Cl = ClC*; CH2F = FC*

What follows are compounds tested against T1, T. cruzi oligopeptidase B (rPEP, recombinant 120-kD peptidase) (Trypanosoma cruzi, UniProt Q94795) (assay: fluorimetric inhibition of Z-Phe-Arg-AMC hydrolysis).
T1 sequence (Q94795 1-714): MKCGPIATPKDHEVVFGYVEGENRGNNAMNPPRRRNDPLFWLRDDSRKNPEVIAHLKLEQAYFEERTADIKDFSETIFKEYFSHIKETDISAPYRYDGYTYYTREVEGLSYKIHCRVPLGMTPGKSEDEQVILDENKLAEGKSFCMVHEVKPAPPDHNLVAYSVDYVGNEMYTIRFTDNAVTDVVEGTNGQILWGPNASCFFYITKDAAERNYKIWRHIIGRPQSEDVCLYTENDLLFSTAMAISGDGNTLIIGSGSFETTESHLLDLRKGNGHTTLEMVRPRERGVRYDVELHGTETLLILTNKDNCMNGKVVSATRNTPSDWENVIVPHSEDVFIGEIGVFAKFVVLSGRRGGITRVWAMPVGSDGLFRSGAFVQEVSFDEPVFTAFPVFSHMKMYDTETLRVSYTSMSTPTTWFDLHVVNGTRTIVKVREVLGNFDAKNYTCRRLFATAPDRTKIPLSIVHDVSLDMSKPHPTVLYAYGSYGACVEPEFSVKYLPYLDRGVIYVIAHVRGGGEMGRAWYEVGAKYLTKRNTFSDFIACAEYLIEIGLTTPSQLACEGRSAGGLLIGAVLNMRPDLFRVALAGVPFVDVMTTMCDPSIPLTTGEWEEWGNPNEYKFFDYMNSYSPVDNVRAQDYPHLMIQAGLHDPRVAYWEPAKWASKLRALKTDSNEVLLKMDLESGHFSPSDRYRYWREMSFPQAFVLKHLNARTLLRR
Format: biochemical

Compound | IC50 [nM]
Cc1ccc(S(=O)(=O)N[C@@H](CCCCN)C(=O)CCl)cc1 [N-α-p-tosyl-l-lysine-chloromethyl ketone] | 600
N=C(N)NCCC[C@H](NC(=O)[C@H](Cc1ccccc1)NC(=O)OCc1ccccc1)C(=O)CF [Z-Phe-Arg-fluoromethylketone] (Cbz-Phe-Arg-CH2F) | 250
CC(=O)N[C@@H](CCCNC(=N)N)C(=O)N[C@@H](CCCNC(=N)N)C(=O)CCl [acetylArg-Arg-chloromethylketone] (Ac-Arg-Arg-CH2Cl) | 200
O=C(O)c1cc[c]([Hg][Cl])cc1 [p-chloromercuribenzoic acid] | 330
